According to patent US7118895B2, “Process for producing aglycon by using diglycosidase and flavor-improved food containing the aglycon and converting agent to be used in the process” (Amano Enzyme Inc., priority 2000, dated 2006):

Tested on: Crude diglycosidase
Test: Examination of pH in the conversion into isoflavone aglycons by diglycosidase using soybean materials
Format: biochemical, Penicillium multicolor IAM7153
Design: Decomposition efficiency of genistin family in soymilk / Decomposition efficiency of genistin family in defatted soybean / Decomposition efficiency of daidzin family in defatted soybean: concentration or dose not given beside the values
Settings: for Decomposition efficiency of genistin family in roasted soy flour: 55° C.
Procedure: A substrate solution of 450 μL was prepared by suspending 50 mg of each soybean material (roasted soy flour (manufactured by Fuji Shokuryo K.K.), soymilk (manufactured by Gitoh Shokuhin K.K.), defatted soybean (manufactured by Fuji Seiyu K.K.), concentrated soybean protein (manufactured by Fuji Seiyu K.K.)), and adjusting the pH to 2 to 11 with hydrochloric acid or sodium hydroxide. Each enzyme solution of pH 2–11 wherein diglycosidase activity of crude diglycosidase was adjusted to 1.88 AU/mL was added thereto in an amount of 50 μL and the whole was reacted at 55° C. at the total volume of 500 μL. To the reaction mixture was added 700 μL of ethanol after 0, 1, 3, and 6 hours of the reaction. After stirring and ultrasonication, the mixture was subjected to centrifugal separation at 15,000 rpm and 4° C. for 10 minutes. The supernatant was filtered through a filter and the existence of isoflavone glycosides and aglycon isoflavones contained in the reaction mixture was detected by HLPC (Tables 15 to 26).

[1] = pH4.8, heat treatment of enzyme: no, reaction time 0 h
[2] = pH4.8, heat treatment of enzyme: no, reaction time 1 h
[3] = pH4.8, heat treatment of enzyme: no, reaction time 3 h
[4] = pH4.8, heat treatment of enzyme: no, reaction time 6 h
[5] = pH4.8, heat treatment of enzyme: yes, reaction time 6 h

## O=c1c(-c2ccc(O)cc2)coc2cc(O[C@@H]3O[C@H](CO)[C@@H](O)[C@H](O)[C@H]3O)cc(O)c12 [genistin]
pH1.6, heat treatment of enzyme: no, reaction time 0 h
  Decomposition efficiency of genistin family in concentrated soybean protein: 49.7%
pH1.6, heat treatment of enzyme: no, reaction time 1 h
  Decomposition efficiency of genistin family in concentrated soybean protein: 50.2%
pH1.6, heat treatment of enzyme: no, reaction time 3 h
  Decomposition efficiency of genistin family in concentrated soybean protein: 51.6%
pH1.6, heat treatment of enzyme: no, reaction time 6 h
  Decomposition efficiency of genistin family in concentrated soybean protein: 53.3%
pH1.6, heat treatment of enzyme: yes, reaction time 6 h
  Decomposition efficiency of genistin family in concentrated soybean protein: 54.4%
pH2, heat treatment of enzyme no, reaction time 0 h
  Decomposition efficiency of genistin family in roasted soy flour: 50.0
pH2, heat treatment of enzyme no, reaction time 1 h
  Decomposition efficiency of genistin family in roasted soy flour: 49.7
pH2, heat treatment of enzyme no, reaction time 3 h
  Decomposition efficiency of genistin family in roasted soy flour: 50.7
pH2, heat treatment of enzyme no, reaction time 6 h
  Decomposition efficiency of genistin family in roasted soy flour: 52.7
pH2, heat treatment of enzyme yes, reaction time 6 h
  Decomposition efficiency of genistin family in roasted soy flour: 52.8
pH2.3, heat treatment of enzyme: no, reaction time 0 h
  Decomposition efficiency of genistin family in soymilk: 31.5%
pH2.3, heat treatment of enzyme: no, reaction time 1 h
  Decomposition efficiency of genistin family in soymilk: not detected
pH2.3, heat treatment of enzyme: no, reaction time 3 h
  Decomposition efficiency of genistin family in soymilk: not detected
pH2.3, heat treatment of enzyme: no, reaction time 6 h
  Decomposition efficiency of genistin family in soymilk: not detected
pH2.3, heat treatment of enzyme: yes, reaction time 6 h
  Decomposition efficiency of genistin family in soymilk: 35.5%
pH2.6, heat treatment of enzyme: no, reaction time 0 h
  Decomposition efficiency of genistin family in defatted soybean: 42.0%
pH2.6, heat treatment of enzyme: no, reaction time 1 h
  Decomposition efficiency of genistin family in defatted soybean: 36.3%
pH2.6, heat treatment of enzyme: no, reaction time 3 h
  Decomposition efficiency of genistin family in defatted soybean: 20.3%
pH2.6, heat treatment of enzyme: no, reaction time 6 h
  Decomposition efficiency of genistin family in defatted soybean: 20.1%
pH2.6, heat treatment of enzyme: yes, reaction time 6 h
  Decomposition efficiency of genistin family in defatted soybean: 44.3%
pH2.7, heat treatment of enzyme: no, reaction time 0 h
  Decomposition efficiency of genistin family in concentrated soybean protein: 49.7%
pH2.7, heat treatment of enzyme: no, reaction time 1 h
  Decomposition efficiency of genistin family in concentrated soybean protein: 23.1%
pH2.7, heat treatment of enzyme: no, reaction time 3 h
  Decomposition efficiency of genistin family in concentrated soybean protein: 22.1%
pH2.7, heat treatment of enzyme: no, reaction time 6 h
  Decomposition efficiency of genistin family in concentrated soybean protein: 17.5%
pH2.7, heat treatment of enzyme: yes, reaction time 6 h
  Decomposition efficiency of genistin family in concentrated soybean protein: 50.5%
pH3, heat treatment of enzyme no, reaction time 0 h
  Decomposition efficiency of genistin family in roasted soy flour: 50.0
pH3, heat treatment of enzyme no, reaction time 1 h
  Decomposition efficiency of genistin family in roasted soy flour: 3.4
pH3, heat treatment of enzyme no, reaction time 3 h
  Decomposition efficiency of genistin family in roasted soy flour: not detected
pH3, heat treatment of enzyme no, reaction time 6 h
  Decomposition efficiency of genistin family in roasted soy flour: not detected
pH3, heat treatment of enzyme yes, reaction time 6 h
  Decomposition efficiency of genistin family in roasted soy flour: 49.9
pH3.4, heat treatment of enzyme: no, reaction time 0 h
  Decomposition efficiency of genistin family in defatted soybean: 42.0%
pH3.4, heat treatment of enzyme: no, reaction time 1 h
  Decomposition efficiency of genistin family in defatted soybean: not detected
pH3.4, heat treatment of enzyme: no, reaction time 3 h
  Decomposition efficiency of genistin family in defatted soybean: not detected
pH3.4, heat treatment of enzyme: no, reaction time 6 h
  Decomposition efficiency of genistin family in defatted soybean: not detected
pH3.4, heat treatment of enzyme: yes, reaction time 6 h
  Decomposition efficiency of genistin family in defatted soybean: 44.3%
pH3.5, heat treatment of enzyme: no, reaction time 0 h
  Decomposition efficiency of genistin family in soymilk: 31.5%
pH3.5, heat treatment of enzyme: no, reaction time 1 h
  Decomposition efficiency of genistin family in soymilk: not detected
pH3.5, heat treatment of enzyme: no, reaction time 3 h
  Decomposition efficiency of genistin family in soymilk: not detected
pH3.5, heat treatment of enzyme: no, reaction time 6 h
  Decomposition efficiency of genistin family in soymilk: not detected
pH3.5, heat treatment of enzyme: yes, reaction time 6 h
  Decomposition efficiency of genistin family in soymilk: 37.0%
pH3.7, heat treatment of enzyme: no, reaction time 0 h
  Decomposition efficiency of genistin family in concentrated soybean protein: 50.7%
pH3.7, heat treatment of enzyme: no, reaction time 1 h
  Decomposition efficiency of genistin family in concentrated soybean protein: not detected
pH3.7, heat treatment of enzyme: no, reaction time 3 h
  Decomposition efficiency of genistin family in concentrated soybean protein: not detected
pH3.7, heat treatment of enzyme: no, reaction time 6 h
  Decomposition efficiency of genistin family in concentrated soybean protein: not detected
pH3.7, heat treatment of enzyme: yes, reaction time 6 h
  Decomposition efficiency of genistin family in concentrated soybean protein: 50.6%
pH4, heat treatment of enzyme no, reaction time 0 h
  Decomposition efficiency of genistin family in roasted soy flour: 49.9
pH4, heat treatment of enzyme no, reaction time 1 h
  Decomposition efficiency of genistin family in roasted soy flour: not detected
pH4, heat treatment of enzyme no, reaction time 3 h
  Decomposition efficiency of genistin family in roasted soy flour: not detected
pH4, heat treatment of enzyme no, reaction time 6 h
  Decomposition efficiency of genistin family in roasted soy flour: not detected
pH4, heat treatment of enzyme yes, reaction time 6 h
  Decomposition efficiency of genistin family in roasted soy flour: 50.2
[1]
  Decomposition efficiency of genistin family in defatted soybean: 40.5%
  Decomposition efficiency of genistin family in soymilk: 31.7%
[2]
  Decomposition efficiency of genistin family in defatted soybean: not detected
  Decomposition efficiency of genistin family in soymilk: not detected
[3]
  Decomposition efficiency of genistin family in defatted soybean: not detected
  Decomposition efficiency of genistin family in soymilk: not detected
[4]
  Decomposition efficiency of genistin family in defatted soybean: not detected
  Decomposition efficiency of genistin family in soymilk: not detected
[5]
  Decomposition efficiency of genistin family in defatted soybean: 31.8%
  Decomposition efficiency of genistin family in soymilk: 37.8%
